Reference: patent US7541353B2, “Compounds for the treatment of hepatitis C” (Bristol-Myers Squibb Company, priority 2007, dated 2009)
Where two headings read alike, the source gives them in different places.

Legend:
HCV NS5B = target: T1, HCV NS5B (Hepatitis C virus genotype 1b, UniProt Q9WMX2); assay: Modified HCV NS5B RdRp enzyme assay (preincubation protocol); assay type: biochemical
T1 construct: The cDNA encoding the NS5B protein of HCV, genotype 1b; made in house; host or cells: E. coli BL21(DE3)
Experimental: HCV NS5B RdRp cloning, expression, and purification. The cDNA encoding the NS5B protein of HCV, genotype 1b, was cloned into the pET21a expression vector. The protein was expressed with an 18 amino acid C-terminal truncation to enhance the solubility. The E. coli competent cell line BL21(DE3) was used for expression of the protein. Cultures were grown at 37° C. for ˜4 hours until the cultures reached an optical density of 2.0 at 600 nm. The cultures were cooled to 20° C. and induced with 1 mM IPTG. Fresh ampicillin was added to a final concentration of 50 μg/ml and the cells were grown overnight at 20° C.
Cell pellets (3L) were lysed for purification to yield 15-24 mgs of purified NS5B. The lysis buffer consisted of 20 mM Tris-HCl, pH 7.4, 500 mM NaCl, 0.5% triton X-100, 1 mM DTT, 1 mM EDTA, 20% glycerol, 0.5 mg/ml lysozyme, 10 mM MgCl2, 15 ug/ml deoxyribonuclease I, and Complete™ protease inhibitor tablets (Roche). After addition of the lysis buffer, frozen cell pellets were resuspended using a tissue homogenizer. To reduce the viscosity of the sample, aliquots of the lysate were sonicated on ice using a microtip attached to a Branson sonicator. The sonicated lysate was centrifuged at 100,000×g for 1 hr at 4° C. and filtered through a 0.2 μm filter unit (Corning).
The protein was purified using two sequential chromatography steps: Heparin sepharose CL-6B and polyU sepharose 4B (Pharmacia). The chromatography buffers were identical to the lysis buffer but contained no lysozyme, deoxyribonuclease I, MgCl2 or protease inhibitor and the NaCl concentration of the buffer was adjusted according to the requirements for charging the protein onto the column. Each column was eluted with a NaCl gradient which varied in length from 5-50 column volumes depending on the column type. After the final chromatography step, the resulting purity of the enzyme is >90% based on SDS-PAGE analysis. The enzyme was aliquoted and stored at −80° C.
Standard HCV NS5B RdRp enzyme assay. HCV RdRp genotype 1b assays were run in a final volume of 60 μl in 96 well plates (Corning 3600). The assay buffer is composed of 20 mM Hepes, pH 7.5, 2.5 mM KCl, 2.5 mM MgCl2, 1 mM DTT, 1.6 U RNAse inhibitor (Promega N2515), 0.01 mg/ml BSA (Sigma B6917), and 2% glycerol. All compounds were serially diluted (3-fold) in DMSO and diluted further in water such that the final concentration of DMSO in the assay was 2%. HCV RdRp genotype 1b enzyme was used at a final concentration of 28 nM. A polyA template was used at 6 nM, and a biotinylated oligo-dT12 primer was used at 180 nM final concentration. Template was obtained commercially (Amersham 27-4110). Biotinylated primer was prepared by Sigma Genosys. 3H-UTP was used at 0.6 μCi (0.29 μM total UTP). Reactions were initiated by the addition of enzyme, incubated at 30° C. for 60 min, and stopped by adding 25 μl of 50 mM EDTA containing SPA beads (4 μg/μl, Amersham RPNQ 0007). Plates were read on a Packard Top Count NXT after >1 hr incubation at room temperature.
Modified HCV NS5B RdRp enzyme assay. A modified enzyme assay was performed essentially as described for the standard enzyme assay except for the following: The biotinylated oligo dT12 primer was precaptured on streptavidin-coated SPA beads by mixing primer and beads in assay buffer and incubating at room temperature for one hour. Unbound primer was removed after centrifugation. The primer-bound beads were resuspended in 20 mM Hepes buffer, pH 7.5 and used in the assay at final concentrations of 20 nM primer and 0.67 μg/μl beads. Order of addition in the assay: enzyme (1.75 nM) was added to diluted compound followed by the addition of a mixture of template (0.36 nM), 3H-UTP (0.6 μCi, 0.29 μM), and primer-bound beads, to initiate the reaction; concentrations given are final. Reactions were allowed to proceed for 4 hours at 30° C.
IC50 values for compounds were determined using seven different [I]. […]

HCV replicon cells = assay: HCV replicon FRET assay; assay type: cell-based
Experimental: FRET Assay Preparation. The HCV FRET screening assay was performed in 96-well cell culture plates. The FRET peptide (Anaspec, Inc.) (Taliani et al., Anal. Biochem. 1996, 240, 60-67) contains a fluorescence donor, EDANS, near one end of the peptide and an acceptor, DABCYL, near the other end. The fluorescence of the peptide is quenched by […] resonance energy transfer (RET) between the donor and the acceptor, but as the NS3 protease cleaves the peptide the products are released from RET quenching and the fluorescence of the donor becomes apparent. The assay reagent was made as follows: 5× cell Luciferase cell culture lysis reagent from Promega (#E153A) diluted to 1× with dH2O, NaCl added to 150 mM final, the FRET peptide diluted to 20 μM final from a 2 mM stock.
To prepare plates, HCV replicon cells, with or without a Renilla luciferase reporter gene, were trypsinized and plated in a 96-well plate with titrated test compounds added in columns 3 through 12; columns 1 and 2 contained a control compound (HCV control inhibitor), and the bottom row contained cells with DMSO only. The plates were then placed in a CO2 incubator at 37° C.
Assays. Subsequent to addition of the test compounds described above (FRET Assay Preparation), at various times the plate was removed and Alamar blue solution (Trek Diagnostics, #00-100) was added to measure cellular toxicity. After reading in a Cytoflour 4000 instrument (PE Biosystems), plates were rinsed with PBS and then used for FRET assay by the addition of 30 ul of the FRET peptide assay reagent described above (FRET Assay Preparation) per well. The plate was then placed into the Cytoflour 4000 instrument which had been set to 340 excite/490 emission, automatic mode for up to 20 cycles and the plate read in a kinetic mode. Typically, the signal to noise using an endpoint analysis after the reads was at least three-fold. Alternatively, after Alamar blue reading, plates were rinsed with PBS, then used for luciferase assay using the Promega Dual-Glo Luciferase Assay System or the Promega EnduRen Live Cell Substrate assay.
Compound analysis was performed by quantification of the relative HCV replicon inhibition and the relative cytotoxicity values. To calculate cytoxicity values, the average Alamar Blue fluorescence signals from the control wells were set as 100% non-toxic. The individual signals in each of the compound test wells were then divided by the average control signal and multiplied by 100% to determine […]. To calculate the HCV replicon inhibition values, an average background value was obtained from the two wells containing the highest amount of HCV control inhibitor at the end of the assay period. These numbers were similar to those obtained from naïve Huh-7 cells. The background numbers were then subtracted from the average signal obtained from the control wells and this number was used as 100% activity. The individual signals in each of the compound test wells were then divided by the averaged control values after background subtraction and multiplied by 100% to determine percent activity. EC50 values were calculated as the concentration which caused a 50% reduction in FRET or luciferase activity. The two numbers generated for the compound plate, percent cytoxicity and percent activity, were used to determine compounds of interest for further analysis.

T1 sequence (Q9WMX2 2420-2992): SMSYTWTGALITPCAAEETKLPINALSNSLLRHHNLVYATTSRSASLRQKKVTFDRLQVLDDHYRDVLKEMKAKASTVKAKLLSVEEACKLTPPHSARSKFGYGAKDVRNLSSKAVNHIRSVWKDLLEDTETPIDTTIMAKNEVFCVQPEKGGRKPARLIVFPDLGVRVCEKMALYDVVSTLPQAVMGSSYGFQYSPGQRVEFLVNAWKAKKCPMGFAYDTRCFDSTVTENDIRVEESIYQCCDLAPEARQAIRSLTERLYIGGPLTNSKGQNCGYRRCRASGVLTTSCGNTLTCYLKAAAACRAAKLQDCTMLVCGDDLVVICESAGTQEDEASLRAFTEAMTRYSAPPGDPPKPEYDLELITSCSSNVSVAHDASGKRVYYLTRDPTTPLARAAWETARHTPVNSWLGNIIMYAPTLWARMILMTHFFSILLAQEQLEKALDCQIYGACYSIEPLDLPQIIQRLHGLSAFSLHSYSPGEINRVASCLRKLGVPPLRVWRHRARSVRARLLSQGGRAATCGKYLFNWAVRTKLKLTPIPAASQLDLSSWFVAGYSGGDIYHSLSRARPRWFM

Structure (SMILES) | IC50 (HCV NS5B) [nM] | EC50 (HCV replicon cells; Hepatitis C virus) [nM] | further results
COc1ccc2c(c1)C1CC1(C(=O)N1C3CCC1CC(N(CCN(C)C)Cc1ccccc1)C3)Cn1c-2c(C2CCCCC2)c2ccc(C(=O)NS(C)(=O)=O)cc21 (stereo not drawn) | 4.58 to 500 | 4.58 to 500 | 
COc1ccc2c(c1)C1CC1(C(=O)N1C3COCC1COC3)Cn1c-2c(C2CCCCC2)c2ccc(C(=O)NS(=O)(=O)CCC(F)(F)F)cc21 (stereo not drawn) | 4.58 to 500 | 4.58 to 500 | 
CCC(C)S(=O)(=O)NC(=O)c1ccc2c(C3CCCCC3)c3n(c2c1)CC1(C(=O)N2C4CCC[C@@H]2COC4)CC1c1cc(OC)ccc1-3 (stereo partly drawn) | 4.58 to 500 | 4.58 to 500 | 
COc1ccc2c(c1)C1CC1(C(=O)N1C3CCC1CC(NC(C)C)C3)Cn1c-2c(C2CCCCC2)c2ccc(C(=O)NS(=O)(=O)N(C)C)cc21 (stereo not drawn) | 4.58 to 500 | 4.58 to 500 | 
COc1ccc2c(c1)C1CC1(C(=O)N1C3CCC1CC(O)(C1CC1)C3)Cn1c-2c(C2CCCCC2)c2ccc(C(=O)NS(=O)(=O)N(C)C)cc21 (stereo not drawn) | 4.58 to 500 | 4.58 to 500 | 
COc1ccc2c(c1)C1CC1(C(=O)N1C3CCC1CC(O)(C(F)(F)F)C3)Cn1c-2c(C2CCCCC2)c2ccc(C(=O)NS(=O)(=O)N(C)C)cc21 (stereo not drawn) | 4.58 to 500 | 4.58 to 500 | 
COc1ccc2c(c1)C1CC1(C(=O)N1C3CCC[C@@H]1COC3)Cn1c-2c(C2CCCCC2)c2ccc(C(=O)NS(=O)(=O)C3CCCC3)cc21 (stereo partly drawn) | 4.58 to 500 | 4.58 to 500 | 
COc1ccc2c(c1)[C@@H]1C[C@]1(C(=O)N1C3CCC1CC(C)(O)C3)Cn1c-2c(C2CCCCC2)c2ccc(C(=O)NS(=O)(=O)N(C)C)cc21 (stereo partly drawn) [drawing 46] | 4.58 to 500 | 4.58 to 500 | 
COc1ccc2c(c1)C1CC1(C(=O)C1C3CCC1CC3)Cn1c-2c(C2CCCCC2)c2ccc(C(=O)NS(=O)(=O)N(C)C)cc21 (stereo not drawn) |  |  | IC50 (HCV NS5B; preincubation protocol, read-out: IC50): 4.58 to 500 nM; EC50 (HCV replicon cells; Hepatitis C virus, FRET assay, read-out: EC50): 4.58 to 500 nM
COc1ccc2c(c1)C1CC1(C(=O)N1C3CCC1CC(N(C)C)C3)Cn1c-2c(C2CCCCC2)c2ccc(C(=O)NS(=O)(=O)N(C)C)cc21 (stereo not drawn) | 4.58 to 500 | 4.58 to 500 | 
COc1ccc2c(c1)C1CC1(C(=O)N1C3CCC1CC(NCc1ccccc1)C3)Cn1c-2c(C2CCCCC2)c2ccc(C(=O)NS(=O)(=O)C(C)C)cc21 (stereo not drawn) | 4.58 to 500 | 4.58 to 500 | 
COc1ccc2c(c1)C1CC1(C(=O)N1C3CCC1CC(N(CCN(C)C)Cc1ccccc1)C3)Cn1c-2c(C2CCCCC2)c2ccc(C(=O)NS(=O)(=O)N3CCC3)cc21 (stereo not drawn) | 4.58 to 500 | 4.58 to 500 | 
CNC1CC2CCC(C1)N2C(=O)C12CC1c1cc(OC)ccc1-c1c(C3CCCCC3)c3ccc(C(=O)NS(=O)(=O)N(C)C)cc3n1C2 (stereo not drawn) [drawing 28] | 4.58 to 500 | 4.58 to 500 | 
COc1ccc2c(c1)C1CC1(C(=O)N1C3CCC1CC(C)(O)C3)Cn1c-2c(C2CCCCC2)c2ccc(C(=O)NS(=O)(=O)N3CCC3)cc21 (stereo not drawn) | 4.58 to 500 | 4.58 to 500 | 
COc1ccc2c(c1)C1CC1(C(=O)N1C3CCCC1COC3)Cn1c-2c(C2CCCCC2)c2ccc(C(=O)NS(=O)(=O)CCC(F)(F)F)cc21 (stereo not drawn) | 4.58 to 500 | 4.58 to 500 | 
COc1ccc2c(c1)C1CC1(C(=O)N1C3COCC1COC3)Cn1c-2c(C2CCCCC2)c2ccc(C(=O)NS(=O)(=O)CC(C)C)cc21 (stereo not drawn) | 4.58 to 500 | 4.58 to 500 | 
COc1ccc2c(c1)C1CC1(C(=O)N1C3CCC1CC3)Cn1c-2c(C2CCCCC2)c2ccc(C(=O)NS(=O)(=O)N3CCN(C)CC3)cc21 (stereo not drawn) | 4.58 to 500 | 4.58 to 500 | 
COc1ccc2c(c1)C1CC1(C(=O)N1C3CCC[C@@H]1COC3)Cn1c-2c(C2CCCCC2)c2ccc(C(=O)NS(=O)(=O)C(C)C)cc21 (stereo partly drawn) | 4.58 to 500 | 4.58 to 500 | 
COc1ccc2c(c1)C1CC1(C(=O)N1C3CCC1CC(N(CCN(C)C)Cc1ccccc1)C3)Cn1c-2c(C2CCCCC2)c2ccc(C(=O)NS(=O)(=O)N(C)C)cc21 (stereo not drawn) | 4.58 to 500 | 4.58 to 500 | 
CCNC1CC2CCC(C1)N2C(=O)C12CC1c1cc(OC)ccc1-c1c(C3CCCCC3)c3ccc(C(=O)NS(=O)(=O)N(C)C)cc3n1C2 (stereo not drawn) | 4.58 to 500 | 4.58 to 500 | 
COc1ccc2c(c1)C1CC1(C(=O)N1C3COCC1COC3)Cn1c-2c(C2CCCCC2)c2ccc(C(=O)NS(=O)(=O)C3CCCCC3)cc21 (stereo not drawn) | 4.58 to 500 | 4.58 to 500 | 
COc1ccc2c(c1)C1CC1(C(=O)N1C3CCC1CC(N(C)Cc1ccccc1)C3)Cn1c-2c(C2CCCCC2)c2ccc(C(=O)NS(=O)(=O)C(C)C)cc21 (stereo not drawn) [drawing 56] |  |  | IC50 (HCV NS5B; preincubation protocol): 4.58 to 500 nM; EC50 (HCV replicon cells; FRET assay): 4.58 to 500 nM
COc1ccc2c(c1)C1CC1(C(=O)N1C3CCC1CC(N(CCN(C)C)Cc1ccccc1)C3)Cn1c-2c(C2CCCCC2)c2ccc(C(=O)NS(=O)(=O)C3CC3)cc21 (stereo not drawn) | 4.58 to 500 | 4.58 to 500 | 
COc1ccc2c(c1)C1CC1(C(=O)N1C3CCC1CC(=O)C3)Cn1c-2c(C2CCCCC2)c2ccc(C(=O)NS(=O)(=O)N(C)C)cc21 (stereo not drawn) | 4.58 to 500 | 4.58 to 500 | 
CCC(C)S(=O)(=O)NC(=O)c1ccc2c(C3CCCCC3)c3n(c2c1)CC1(C(=O)N2C4CCC2CC(N(C)Cc2ccccc2)C4)CC1c1cc(OC)ccc1-3 (stereo not drawn) | 4.58 to 500 | 4.58 to 500 | 
COc1ccc2c(c1)[C@@H]1C[C@]1(C(=O)N1C3CCC1CC(C)(O)C3)Cn1c-2c(C2CCCCC2)c2ccc(C(=O)NS(=O)(=O)N(C)C)cc21 (stereo partly drawn) [drawing 47] |  |  | IC50 (HCV NS5B; preincubation protocol): 4.58 to 500 nM; EC50 (HCV replicon cells; FRET assay): 4.58 to 500 nM
COc1ccc2c(c1)C1CC1(C(=O)N1C3CCC[C@@H]1COC3)Cn1c-2c(C2CCCCC2)c2ccc(C(=O)NS(=O)(=O)CC(C)C)cc21 (stereo partly drawn) | 4.58 to 500 | 4.58 to 500 | 
